Measured values taken from patent publication US20250129430A1, “HIGH ATP-AFFINITY PROTEIN AS THERAPEUTIC TARGET FOR INTRACTABLE CANCER MOLECULAR SUBTYPES AND INHIBITOR THEREOF” (VeraVerse Co., Ltd., priority 2021, published 2025).

Columns and labels:
Assay in all cases: Cell viability drug screen, 12-point dose-response AUC
Assay type in all cases: cell-based, human
[1] = test system: FU97; design: Average Area Under the Viability Curve (AUC), AUC norm value: scale not given here; conditions: FU97 cells; 72 hours
Procedure, shortened: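 Trapezoidal AUC of a 12-point, DMSO-normalized dose-response curve. Luminescent viability was measured after 72 h of exposure at 37° C to half-log serial dilutions (0.5% DMSO control), dosed 24 h after plating FU97 cells at 5×10^3 per well.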

[2] = test system: SK4; conditions: SK4 cells (SEM subtype); 72 hours
Procedure, shortened: (§1)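 Each cell line receives a twelve-point half-log titration of drug beginning 24 h after plating 5×10^3 cells per well. Following 72 h culture at 37 °C, luminescent signal is recorded and expressed versus vehicle. AUC is derived by the trapezoidal method.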

[3] = test system: Hs746T; conditions: Hs746T cells (SEM subtype); 72 hours
Procedure, shortened: as §1

[4] = test system: MKN45; conditions: MKN45 cells (non-SEM subtype); 72 hours
Procedure, shortened: (§2)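 Gastric cancer lines seeded 5×10^3 cells/well, dosed after 24 h with half-log 12-point compound dilutions (DMSO 0.5% control), then 72 h at 37 °C. Viability by luminescence, normalized to DMSO; AUC by trapezoidal method, averaged over repeats.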

[5] = test system: YCC2; conditions: YCC2 cells; 72 hours
Procedure, shortened: as §1

[6] = test system: SNU1967; conditions: SNU1967 cells; 72 hours
Procedure, shortened: as §1

[7] = test system: SNU484; conditions: SNU484 cells (SEM subtype); 72 hours
Procedure, shortened: as §1

[8] = test system: MKN28; conditions: MKN28 cells; 72 hours
Procedure, shortened: as §1

[9] = test system: AGS; conditions: AGS cells (non-SEM subtype); 72 hours
Procedure, shortened: as §2

[10] = test system: SNU16; conditions: SNU16 cells; 72 hours
Procedure, shortened: as §1

[11] = test system: NCC59; conditions: NCC59 cells; 72 hours
Procedure, shortened: as §1

[12] = test system: NCC24; conditions: NCC24 cells; 72 hours
Procedure, shortened: as §1

[13] = test system: NCI_N87; conditions: NCI_N87 cells; 72 hours
Procedure, shortened: as §1

[14] = test system: SNU1; conditions: SNU1 cells; 72 hours
Procedure, shortened: as §1

[15] = test system: NCC19; conditions: NCC19 cells; 72 hours
Procedure, shortened: as §1

[16] = test system: MKN1; conditions: MKN1 cells; 72 hours
Procedure, shortened: as §1

[17] = test system: KATO3; conditions: KATO3 cells; 72 hours
Procedure, shortened: as §1

[18] = test system: SNU620; conditions: SNU620 cells; 72 hours
Procedure, shortened: as §1

[19] = test system: SNU216; conditions: SNU216 cells (non-SEM subtype); 72 hours
Procedure, shortened: as §2

[20] = test system: MKN74; conditions: MKN74 cells; 72 hours
Procedure, shortened: as §2

[21] = test system: OCUM1; conditions: OCUM1 cells; 72 hours
Procedure, shortened: as §1

[22] = test system: SNU719; conditions: SNU719 cells; 72 hours
Procedure, shortened: as §2

[23] = test system: SNU668; conditions: SNU668 cells (SEM subtype); 72 hours
Procedure, shortened: as §1

[24] = test system: NCC20; conditions: NCC20 cells; 72 hours
Procedure, shortened: as §1

[25] = test system: YCC11; conditions: YCC11 cells (SEM subtype); 72 hours
Procedure, shortened: as §1

[26] = test system: YCC3; conditions: YCC3 cells; 72 hours
Procedure, shortened: as §1

[27] = test system: SNU601; conditions: SNU601 cells; 72 hours
Procedure, shortened: as §1

[28] = test system: SNU638; conditions: SNU638 cells; 72 hours
Procedure, shortened: as §1

[29] = test system: SNU1750; conditions: SNU1750 cells (SEM subtype); 72 hours
Procedure, shortened: as §1

Compound	Average Area Under the Viability Curve (AUC), AUC norm value [1]	Average Area Under the Viability Curve (AUC), AUC norm value [2]	Average Area Under the Viability Curve (AUC), AUC norm value [3]	Average Area Under the Viability Curve (AUC), AUC norm value [4]	Average Area Under the Viability Curve (AUC), AUC norm value [5]	Average Area Under the Viability Curve (AUC), AUC norm value [6]	Average Area Under the Viability Curve (AUC), AUC norm value [7]	Average Area Under the Viability Curve (AUC), AUC norm value [8]	Average Area Under the Viability Curve (AUC), AUC norm value [9]	Average Area Under the Viability Curve (AUC), AUC norm value [10]	Average Area Under the Viability Curve (AUC), AUC norm value [11]	Average Area Under the Viability Curve (AUC), AUC norm value [12]	Average Area Under the Viability Curve (AUC), AUC norm value [13]	Average Area Under the Viability Curve (AUC), AUC norm value [14]	Average Area Under the Viability Curve (AUC), AUC norm value [15]	Average Area Under the Viability Curve (AUC), AUC norm value [16]	Average Area Under the Viability Curve (AUC), AUC norm value [17]	Average Area Under the Viability Curve (AUC), AUC norm value [18]	Average Area Under the Viability Curve (AUC), AUC norm value [19]	Average Area Under the Viability Curve (AUC), AUC norm value [20]	other results
COc1cc(N2CCC(N3CCN(C)CC3)CC2)ccc1Nc1ncc(Cl)c(Nc2ccccc2S(=O)(=O)C(C)C)n1 [TAE684 (NVP-TAE684), TAE684]	−1.587	−0.6572	1.039	2.601	−0.5512	−1.412	−0.6182	−0.4177	−1.326	−3.18	1.273	1.662	2.003	−0.1185	1.944	0	0.2672	0.4637	0.5205	−0.04126	Average Area Under the Viability Curve (AUC), AUC norm value [21]: −0.2195; Average Area Under the Viability Curve (AUC), AUC norm value [22]: 1.051; Average Area Under the Viability Curve (AUC), AUC norm value [23]: 1.009; Average Area Under the Viability Curve (AUC), AUC norm value [24]: −2.659; Average Area Under the Viability Curve (AUC), AUC norm value [25]: −1.4836; Average Area Under the Viability Curve (AUC), AUC norm value [26]: 1.708; Average Area Under the Viability Curve (AUC), AUC norm value [27]: 1.062; Average Area Under the Viability Curve (AUC), AUC norm value [28]: 0.4071; Average Area Under the Viability Curve (AUC), AUC norm value [29]: −0.941
Nc1nc(F)nc2c1ncn2[C@@H]1O[C@H](COP(=O)(O)O)[C@@H](O)[C@@H]1O [Fludarabine Phosphate (Fludara), Fludarabine Phosphate]	2.928	−1.653	1.97	−1.029	−0.7765	2.186	1.309	0.00328	−2.783	−0.44	1.479	1.037	−0.06169	−0.7644	2.411	0.9748	1.165	−2.289	1.771	−0.1731	Average Area Under the Viability Curve (AUC), AUC norm value [21]: −0.3967; Average Area Under the Viability Curve (AUC), AUC norm value [22]: 2.046; Average Area Under the Viability Curve (AUC), AUC norm value [23]: −1.511; Average Area Under the Viability Curve (AUC), AUC norm value [24]: −2.507; Average Area Under the Viability Curve (AUC), AUC norm value [25]: −0.6417; Average Area Under the Viability Curve (AUC), AUC norm value [26]: 0; Average Area Under the Viability Curve (AUC), AUC norm value [27]: −0.5439; Average Area Under the Viability Curve (AUC), AUC norm value [28]: 0.5006; Average Area Under the Viability Curve (AUC), AUC norm value [29]: 1.972
